Molecular target: P. falciparum apicoplast DNA polymerase (Pf-apPOL) (Plasmodium falciparum, UniProt Q8ILY1)
Assay: Fluorescence-based high-throughput DNA polymerase assay (molecular beacon), primary screen and dose-response;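 on % inhibition ApPOL 90': test concentration in µM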;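 on % inhibition apPOL 180': test concentration in µM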
Format: biochemical
Outline: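 Single-point screening used 10 µM compound with 20 nM polymerase, 20 nM hairpin substrate and 6 µM dNTPs for 90 min at 25 °C. Confirmatory titrations (2.5–80 µM) followed fluorescence at three times, and IC50 was derived from a fit including a cooperativity term n.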

[1] = supplemental file 2, sheet IC50 nontoxic compounds; Pf-apPOL

Sequence of P. falciparum apicoplast DNA polymerase (Pf-apPOL) (Q8ILY1 entry or part of it): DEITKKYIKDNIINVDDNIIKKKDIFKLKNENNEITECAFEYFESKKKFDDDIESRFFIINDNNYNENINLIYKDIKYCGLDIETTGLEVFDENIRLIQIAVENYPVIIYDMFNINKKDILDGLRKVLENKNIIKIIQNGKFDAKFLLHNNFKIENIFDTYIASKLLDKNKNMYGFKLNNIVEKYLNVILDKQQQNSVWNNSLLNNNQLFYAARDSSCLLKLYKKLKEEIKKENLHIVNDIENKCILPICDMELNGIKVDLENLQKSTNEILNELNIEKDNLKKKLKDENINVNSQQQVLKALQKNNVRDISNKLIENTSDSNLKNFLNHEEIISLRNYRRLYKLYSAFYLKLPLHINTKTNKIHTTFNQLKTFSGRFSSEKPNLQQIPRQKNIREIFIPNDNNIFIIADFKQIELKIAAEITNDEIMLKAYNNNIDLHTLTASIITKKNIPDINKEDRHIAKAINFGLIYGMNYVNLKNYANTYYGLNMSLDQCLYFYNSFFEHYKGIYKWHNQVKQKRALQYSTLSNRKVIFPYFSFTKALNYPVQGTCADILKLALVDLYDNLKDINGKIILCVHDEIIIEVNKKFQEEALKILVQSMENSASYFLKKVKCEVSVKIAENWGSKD

Compound: COc1ccccc1CCC(=O)N1CCc2c(nc3cc(-c4ccccc4)[nH]n3c2=O)C1 [Molecule 7, COc1ccccc1CCC(=O)N1CCc2c(C1)nc1n(c2=O)[nH]c(c1)c1ccccc1]
- DNA Pol ('DNA Pol'; screening value, unit not given; 90 min, 10 µM): 40
- % inhibition Apo pol 10' (DRC-1; 10'; concentration 2.5): 2.75%
- % inhibition Apo pol 10' (DRC-1; 10'; concentration 5): 18%
- % inhibition Apo pol 10' (DRC-1; 10'; concentration 10): 67%
- % inhibition Apo pol 10' (DRC-1; 10'; concentration 20): 82%
- % inhibition Apo pol 10' (DRC-1; 10'; concentration 40): 78%
- % inhibition Apo pol 10' (DRC-1; 10'; concentration 80): 59%
- % inhibition Apol 90' (DRC-1; 90'; concentration 2.5): 0.0541%
- % inhibition Apol 90' (DRC-1; 90'; concentration 5): 9%
- % inhibition Apol 90' (DRC-1; 90'; concentration 10): 54%
- % inhibition Apol 90' (DRC-1; 90'; concentration 20): 73%
- % inhibition Apol 90' (DRC-1; 90'; concentration 40): 72%
- % inhibition Apol 90' (DRC-1; 90'; concentration 80): 63%
- % inhibition apPOL 180' (DRC-1; 180'; concentration 2.5): -3.58%
- % inhibition apPOL 180' (DRC-1; 180'; concentration 5): 1.16%
- % inhibition apPOL 180' (DRC-1; 180'; concentration 10): 38%
- % inhibition apPOL 180' (DRC-1; 180'; concentration 20): 59%
- % inhibition apPOL 180' (DRC-1; 180'; concentration 40): 58%
- % inhibition apPOL 180' (DRC-1; 180'; concentration 80): 49%
- % inhibition Apo pol 5' (DRC-2, 5', concentration 2.5): 6%
- % inhibition Apo pol 5' (DRC-2, 5', concentration 5): 26%
- % inhibition Apo pol 5' (DRC-2, 5', concentration 10): 48%
- % inhibition Apo pol 5' (DRC-2, 5', concentration 20): 51%
- % inhibition Apo pol 5' (DRC-2, 5', concentration 40): 44%
- % inhibition Apo pol 5' (DRC-2, 5', concentration 80): 21%
- % inhibition Apol 40' (DRC-2, 40', concentration 2.5): 5.58%
- % inhibition Apol 40' (DRC-2, 40', concentration 5): 30%
- % inhibition Apol 40' (DRC-2, 40', concentration 10): 57%
- % inhibition Apol 40' (DRC-2, 40', concentration 20): 64%
- % inhibition Apol 40' (DRC-2, 40', concentration 40): 61%
- % inhibition Apol 40' (DRC-2, 40', concentration 80): 44%
- % inhibition ApPOL 90' (DRC-2, 90', concentration 2.5): 5%
- % inhibition ApPOL 90' (DRC-2, 90', concentration 5): 28%
- % inhibition ApPOL 90' (DRC-2, 90', concentration 10): 57%
- % inhibition ApPOL 90' (DRC-2, 90', concentration 20): 65%
- % inhibition ApPOL 90' (DRC-2, 90', concentration 40): 62%
- % inhibition ApPOL 90' (DRC-2, 90', concentration 80): 47%
- % inhibition apPOL 180' (DRC-2, 180', concentration 2.5): 3%
- % inhibition apPOL 180' (DRC-2, 180', concentration 5): 21%
- % inhibition apPOL 180' (DRC-2, 180', concentration 10): 48%
- % inhibition apPOL 180' (DRC-2, 180', concentration 20): 59%
- % inhibition apPOL 180' (DRC-2, 180', concentration 40): 55%
- % inhibition apPOL 180' (DRC-2, 180', concentration 80): 41%
- % inhibition apPOL 180' (conc 5 (unit not given); 180'; DRC-2): 21%
- % inhibition Apo pol 5' (conc 10 (unit not given); 5'; DRC-2): 48%
- % inhibition Apol 40' (conc 10 (unit not given); 40'; DRC-2): 57%
- % inhibition ApPOL 90' (conc 10 (unit not given); 90'; DRC-2): 57%
- % inhibition apPOL 180' (conc 10 (unit not given); 180'; DRC-2): 48%
- % inhibition apPOL 180' (conc 20 (unit not given); 180'; DRC-2): 59%
- % inhibition apPOL 180' (conc 20 (unit not given); 180'; first dose-response set): 59%
- % inhibition Apo pol 5' (conc 40 (unit not given); 5'; DRC-2): 44%
- % inhibition Apo pol 5' (conc 80 (unit not given); 5'; DRC-2): 21%
- % inhibition Apo pol 10' (conc 80 (unit not given); 10'; first dose-response set): 59%
- % inhibition Apol 40' (conc 80 (unit not given); 40'; DRC-2): 44%
- DNA Pol (primary screen hit value, DNA Pol (186 hits); 90 min, 10 µM): 40

Compound: COc1ccccc1CCC(=O)N1CCc2c(nc3cc(-c4ccccc4)[nH]n3c2=O)C1 [Molecule 7]
- IC50 [1]: 7.2 µM

Compound: CCCCc1ccc(NC(=O)CSc2nc(C3CCCCC3)c(C#N)c(=O)[nH]2)c(C)c1 [Molecule 8, CCCCc1ccc(c(c1)C)NC(=O)CSc1nc(C2CCCCC2)c(c(=O)[nH]1)C#N]
- DNA Pol ('DNA Pol' of the 186 hits list (primary screen result); unit not given; 90 min, 10 µM): 95
- % inhibition Apo pol 10' (DRC-1; 10'; concentration 2.5): -1.955%
- % inhibition Apo pol 10' (DRC-1; 10'; concentration 5): 13.3371%
- % inhibition Apo pol 10' (DRC-1; 10'; concentration 10): 62.6303%
- % inhibition Apo pol 10' (DRC-1; 10'; concentration 20): 77.3201%
- % inhibition Apo pol 10' (DRC-1; 10'; concentration 40): 94.4176%
- % inhibition Apo pol 10' (DRC-1; 10'; concentration 80): 94.8178%
- % inhibition Apol 90' (DRC-1; 90'; concentration 2.5): 1.126%
- % inhibition Apol 90' (DRC-1; 90'; concentration 5): 14.1038%
- % inhibition Apol 90' (DRC-1; 90'; concentration 10): 58.4598%
- % inhibition Apol 90' (DRC-1; 90'; concentration 20): 77.2827%
- % inhibition Apol 90' (DRC-1; 90'; concentration 40): 94.9708%
- % inhibition Apol 90' (DRC-1; 90'; concentration 80): 95.9505%
- % inhibition apPOL 180' (DRC-1; 180'; concentration 2.5): 1.158%
- % inhibition apPOL 180' (DRC-1; 180'; concentration 5): 7.482%
- % inhibition apPOL 180' (DRC-1; 180'; concentration 10): 46.1044%
- % inhibition apPOL 180' (DRC-1; 180'; concentration 20): 69.2922%
- % inhibition apPOL 180' (DRC-1; 180'; concentration 40): 95.0497%
- % inhibition apPOL 180' (DRC-1; 180'; concentration 80): 96.1544%
- % inhibition Apo pol 5' (DRC-2, 5', concentration 20 (unit not given)): 40%
- % inhibition Apol 40' (DRC-2, 40', concentration 20 (unit not given)): 48%
- % inhibition ApPOL 90' (DRC-2, 90', concentration 20 (unit not given)): 48%
- % inhibition apPOL 180' (DRC-2, 180', concentration 20 (unit not given)): 40%
- % inhibition Apo pol 5' (DRC-2; 5'; concentration 2.5): -2.67%
- % inhibition Apo pol 5' (DRC-2; 5'; concentration 5): 2.83%
- % inhibition Apo pol 5' (DRC-2; 5'; concentration 10): 12%
- % inhibition Apo pol 5' (DRC-2; 5'; concentration 20): 40%
- % inhibition Apo pol 5' (DRC-2; 5'; concentration 40): 61%
- % inhibition Apo pol 5' (DRC-2; 5'; concentration 80): 65%
- % inhibition Apol 40' (DRC-2; 40'; concentration 2.5): 1.81%
- % inhibition Apol 40' (DRC-2; 40'; concentration 5): 5%
- % inhibition Apol 40' (DRC-2; 40'; concentration 10): 16%
- % inhibition Apol 40' (DRC-2; 40'; concentration 20): 48%
- % inhibition Apol 40' (DRC-2; 40'; concentration 40): 72%
- % inhibition Apol 40' (DRC-2; 40'; concentration 80): 79%
- % inhibition ApPOL 90' (DRC-2; 90'; concentration 2.5): 1.18%
- % inhibition ApPOL 90' (DRC-2; 90'; concentration 5): 4%
- % inhibition ApPOL 90' (DRC-2; 90'; concentration 10): 15%
- % inhibition ApPOL 90' (DRC-2; 90'; concentration 20): 48%
- % inhibition ApPOL 90' (DRC-2; 90'; concentration 40): 73%
- % inhibition ApPOL 90' (DRC-2; 90'; concentration 80): 83%
- % inhibition apPOL 180' (DRC-2; 180'; concentration 2.5): -0.672%
- % inhibition apPOL 180' (DRC-2; 180'; concentration 5): -0.274%
- % inhibition apPOL 180' (DRC-2; 180'; concentration 10): 9%
- % inhibition apPOL 180' (DRC-2; 180'; concentration 20): 40%
- % inhibition apPOL 180' (DRC-2; 180'; concentration 40): 71%
- % inhibition apPOL 180' (DRC-2; 180'; concentration 80): 86%
- DNA Pol (primary screen value of the library well; unit not given; 90 min, 10 µM): 95

Compound: CCCCc1ccc(NC(=O)CSc2nc(O)c(C#N)c(C3CCCCC3)n2)c(C)c1 [Molecule 8]
- IC50 [1]: 8.77 µM

Reference: PMC9090415, “Discovery of small molecule inhibitors of Plasmodium falciparum apicoplast DNA polymerase” (Journal of Enzyme Inhibition and Medicinal Chemistry, 2022)
